Columns and labels:
Assay type in all cases: in vivo, Brassica napus
[1] = system: Bn WT 2; test: Field trial crop phytotoxicity, Simcoe; conditions: 18 Days After Treatment, line Bn WT 2; for Mean Percent Crop Phytotoxicity (% Crop Injury): field, 2-4 leaf stage
Source text: (§1) Hand-crossed hybrids were produced in the greenhouse between two IMI-tolerant spring Brassica napus parental lines: “BnCL131A1” (homozygous for the A genome IMI-tolerant mutation AHASL1A-A122(At)T-S653(At)N) and “PM1PM2” (homozygous for the A genome AHAS-inhibitor tolerant mutation AHASL1A-W574(At)L (PM2) plus the C genome AHAS-inhibitor tolerant mutation AHASL1C-S653(At)N(PM1)). The resulting heterozygous hand-crossed hybrid line, “PM1PM2/BnCL131A 1” (heterozygous for the stacked mutations: AHASL1A-A122(At)T-S653(At)N, AHASL1A-W574(At)L (PM2), AHASL1C-S653(At)N(PM1)) was field tested together with lines each containing only one AHAS-inhibitor tolerant mutation (homozygous or heterozygous) and several spring Brassica napus checks.
(§2) The three repetition trial was conducted in Simcoe, N. Dak., and used a randomized split block design. The trial was designed to measure the percent phytotoxicity (% crop injury) of the different entries under 5 different imidazolinone herbicide treatment rates. Plants were sprayed at the 2-4 leaf stage at a volume of 100 liters/ha. The imidazolinone herbicide rates used were as follows (Imazamox=BEYOND™ 120 g/I LC (BAS 72001H); NIS=INDUCE™ 90 (90% non-ionic surfactant; Helena Chemical Co., Collierville, Tenn.):
(§3) Crop Injury Ratings were determined in the field by assessing each plot in the trial for the level of phytotoxicity (percent crop injury) on a scale from 0-100% at 18 days after treatment. Mean values for each entry across the three replications along with their statistical significance (ANOVA) are presented in Table 6 (Ho=homozygous; He=heterozygous). Each value presented in Table 6 is the mean of three replications.
(§4) The percent phytotoxicity (% crop injury) ratings were transposed into Herbicide Tolerance ratings by subtracting the percent crop injury rating (Table 6) for each line from 100% to obtain the percent herbicide tolerance (Table 7) (Ho=homozygous; He=heterozygous).

[2] = system: Bn WT 1; test: Field trial crop phytotoxicity, Simcoe; conditions: 18 Days After Treatment, line Bn WT 1; for Mean Percent Crop Phytotoxicity (% Crop Injury): field, 2-4 leaf stage
Source text: as §1, §2, §3, §4

[3] = system: PM1 (AHASL1C-PM1), S653N (Ho); test: Field trial crop phytotoxicity, Simcoe; conditions: 18 Days After Treatment, line PM1 (AHASL1C-PM1); for Mean Percent Crop Phytotoxicity (% Crop Injury): field, 2-4 leaf stage
Source text: as §1, §2, §3, §4

[4] = system: BnCL131A1.0 (AHAS III A122T S653N double mutant); test: Herbicide injury rating, Table 4; conditions: 3-4 leaf stage, 2 weeks post spray, line BnCL131A1.0
Method: (§5) Herbicide Injury Rating for Brassica napus Plants Treated with Imazamox. Plants for lines BN02 (wild type), two lines of BnCL131A1 (AHAS III A122T S653N double mutant; BnCL131A1.0 and BnCL131A1.18), PM1/PM2 (commercial two gene check: AHAS I S653N & AHAS III W574L) were grown […] Merge. Herbicide injury was evaluated 2 weeks post spray on 12 plants per line. The results are presented as mean injury±one standard error of the mean in Table 4 below. The results cover one planting and spray for all lines and the values for ±two standard error of the mean are also provided.

[5] = system: BN-02 (wild type); test: Herbicide injury rating, Table 4; conditions: 3-4 leaf stage, 2 weeks post spray, line BN-02
Method: as §5

[6] = mean over 0, 35, 70, 140, 210 g ai/ha (N 15)

SMILES: COCc1cnc(C2=NC(C)(C(C)C)C(=O)N2)c(C(=O)O)c1 (centres unmarked) [imazamox]
- Mean Percent Crop Phytotoxicity (% Crop Injury) ([1]; 35 g ai/ha + 0.25% (v/v) NIS): 95%
- Mean Percent Herbicide Tolerance (100% minus percent crop injury) ([1]; 35 g ai/ha): 5.0%
- Mean Percent Crop Phytotoxicity (% Crop Injury) ([1]; 70 g ai/ha + 0.25% (v/v) NIS): 100%
- Mean Percent Herbicide Tolerance (100% minus percent crop injury) ([1]; 70 g ai/ha): 0.0%
- Mean Percent Crop Phytotoxicity (% Crop Injury) ([1]; 140 g ai/ha + 0.25% (v/v) NIS): 100%
- Mean Percent Herbicide Tolerance (100% minus percent crop injury) ([1]; 140 g ai/ha): 0.0%
- Mean Percent Crop Phytotoxicity (% Crop Injury) ([1]; 210 g ai/ha + 0.25% (v/v) NIS): 100%
- Mean Percent Herbicide Tolerance (100% minus percent crop injury) ([1]; 210 g ai/ha): 0.0%
- Mean Percent Crop Phytotoxicity (% Crop Injury), Mean over rates [1, 6]: 79%
- Mean Percent Crop Phytotoxicity (% Crop Injury) ([2]; 35 g ai/ha + 0.25% (v/v) NIS): 85%
- Mean Percent Herbicide Tolerance (100% minus percent crop injury) ([2]; 35 g ai/ha): 15.0%
- Mean Percent Crop Phytotoxicity (% Crop Injury) ([2]; 70 g ai/ha + 0.25% (v/v) NIS): 96.67%
- Mean Percent Herbicide Tolerance (100% minus percent crop injury) ([2]; 70 g ai/ha): 3.3%
- Mean Percent Crop Phytotoxicity (% Crop Injury) ([2]; 140 g ai/ha + 0.25% (v/v) NIS): 100%
- Mean Percent Herbicide Tolerance (100% minus percent crop injury) ([2]; 140 g ai/ha): 0.0%
- Mean Percent Crop Phytotoxicity (% Crop Injury) ([2]; 210 g ai/ha + 0.25% (v/v) NIS): 98.33%
- Mean Percent Herbicide Tolerance (100% minus percent crop injury) ([2]; 210 g ai/ha): 1.7%
- Mean Percent Crop Phytotoxicity (% Crop Injury), Mean over rates [2, 6]: 76%
- Mean Percent Crop Phytotoxicity (% Crop Injury) ([3]; 35 g ai/ha + 0.25% (v/v) NIS): 66.67%
- Mean Percent Herbicide Tolerance (100% minus percent crop injury) ([3]; 35 g ai/ha): 33.3%
- Mean Percent Crop Phytotoxicity (% Crop Injury) ([3]; 70 g ai/ha + 0.25% (v/v) NIS): 86.67%
- Mean Percent Herbicide Tolerance (100% minus percent crop injury) ([3]; 70 g ai/ha): 13.3%
- Mean Percent Crop Phytotoxicity (% Crop Injury) ([3]; 140 g ai/ha + 0.25% (v/v) NIS): 91.67%
- Mean Percent Herbicide Tolerance (100% minus percent crop injury) ([3]; 140 g ai/ha): 8.3%
- Mean Percent Crop Phytotoxicity (% Crop Injury) ([3]; 210 g ai/ha + 0.25% (v/v) NIS): 91.67%
- Mean Percent Herbicide Tolerance (100% minus percent crop injury) ([3]; 210 g ai/ha): 8.3%
- Mean Percent Crop Phytotoxicity (% Crop Injury), Mean over rates [3, 6]: 67.33%
- Herbicide injury rating, mean injury ± standard error of the mean ([4]; 35 g ai/ha + 0.5% v/v Merge): 0.90 ± 0.28
- Herbicide injury rating, mean injury ± standard error of the mean ([4]; 70 g ai/ha + 0.5% v/v Merge): 1.20 ± 0.29
- Herbicide injury rating, mean injury ± standard error of the mean ([4]; 210 g ai/ha + 0.5% v/v Merge): 1.45 ± 0.28
- Herbicide injury rating, mean injury ± standard error of the mean ([4]; 420 g ai/ha): 3.20 ± 0.20
- Herbicide injury rating, mean injury ± standard error of the mean ([5]; 35 g ai/ha + 0.5% v/v Merge): 8.92 ± 0.08
- Herbicide injury rating, mean injury ± standard error of the mean ([5]; 70 g ai/ha + 0.5% v/v Merge): 9.00 ± 0.00
- Herbicide injury rating, mean injury ± standard error of the mean ([5]; 210 g ai/ha + 0.5% v/v Merge): 9.00 ± 0.00
- Herbicide injury rating, mean injury ± standard error of the mean ([5]; 420 g ai/ha): 9.00 ± 0.00
